Measured values as given in the supplement of paper PMC10331698.
± gives the standard deviation of the averaged measurements.

Legend:
Test in all cases: level (log10 ratio to DMSO vehicle control); higher = higher biomarker level / cell amount than vehicle control
Conditions in all cases: in DMSO
Perfluoro-1-iodohexane = compound: FC(F)(F)C(F)(F)C(F)(F)C(F)(F)C(F)(F)C(F)(F)I [Perfluoro-1-iodohexane]
Protocol: (§1)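 BioMAP Diversity Plus panel of 12 human primary cell co-culture systems (3C, 4H, LPS, SAg, BT, BF4T, BE3C, CASM3C, HDF3CGF, KF3CT, MyoF, Mphg). Compounds were added 1 h before stimulation and left for 24 h (MyoF 48 h; BT 72 h for soluble read-outs or 6 d for IgG). Biomarkers were read by ELISA, cytotoxicity by SRB, PBMC viability and proliferation by Alamar Blue. Each well value was divided by the mean of 8 DMSO control wells on the same plate and log10 transformed; duplicate blinded samples were tested at 4 concentrations.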

Perfluorobutanoic acid = compound: O=C(O)C(F)(F)C(F)(F)C(F)(F)F [Perfluorobutanoic acid]
Protocol: as §1

Perfluoropropanoic acid = compound: O=C(O)C(F)(F)C(F)(F)F [Perfluoropropanoic acid]
Protocol: as §1

[1] = compound: O=C(O)C(F)(F)C(F)(F)OC(F)(F)F [Perfluoro-3-methoxypropanoic acid]
Protocol: as §1

[2] = compound: O=C(O)C(F)(F)OC(F)(F)C(F)(F)OC(F)(F)C(=O)O [Perfluoro-3,6-dioxaoctane-1,8-dioic acid]
Protocol: as §1

[3] = compound: OCC(F)(F)OC(F)(F)C(F)(F)OC(F)(F)CO [1H,1H,8H,8H-Perfluoro-3,6-dioxaoctane-1,8-diol]
Protocol: as §1

[4] = compound: OCCC(F)(F)C(F)(F)C(F)(F)C(F)(F)C(F)(F)C(F)(F)F [6:2 Fluorotelomer alcohol]
Protocol: as §1

| Test System | level (log10) (Perfluoro-1-iodohexane; 6700 nM) | level (log10) (Perfluoro-1-iodohexane; 20000 nM) | level (log10) (Perfluoro-1-iodohexane; 60000 nM) | level (log10) (Perfluorobutanoic acid; 6700 nM) | level (log10) (Perfluorobutanoic acid; 20000 nM) | level (log10) (Perfluorobutanoic acid; 60000 nM) | level (log10) (Perfluoropropanoic acid; 6700 nM) | level (log10) (Perfluoropropanoic acid; 20000 nM) | level (log10) (Perfluoropropanoic acid; 60000 nM) | level (log10) ([1]; 6700 nM) | level (log10) ([1]; 20000 nM) | level (log10) ([1]; 60000 nM) | level (log10) ([2]; 6700 nM) | level (log10) ([2]; 20000 nM) | level (log10) ([2]; 60000 nM) | level (log10) ([3]; 6700 nM) | level (log10) ([3]; 20000 nM) | level (log10) ([3]; 60000 nM) | level (log10) ([4]; 6700 nM) | level (log10) ([4]; 20000 nM) |
| --- | --- | --- | --- | --- | --- | --- | --- | --- | --- | --- | --- | --- | --- | --- | --- | --- | --- | --- | --- | --- |
| HDF3CGF:CXCL11/I-TAC | -0.0215 ± 0.011 | -0.0305 ± 0.016 | -0.183 ± 0.15 | 0.005 ± 0.016 | -0.0035 ± 0.011 | 0.001 ± 0.023 | -0.0325 ± 0.032 | -0.018 ± 0.033 | -0.0215 ± 0.057 | -0.001 ± 0.023 | 0.0165 ± 0.012 | 0.0105 ± 0.00071 | 0.0105 ± 0.011 | 0.0235 ± 0.012 | 0.012 ± 0.0042 | 0.0085 ± 0.00071 | 0.0055 ± 0.0064 | 0.014 ± 0.031 | 0.002 ± 0.0071 | 0.0155 ± 0.0035 |
| lMphg:sIL-10 | -0.0575 ± 0.1 | -0.048 ± 0.0042 | -0.047 ± 0.0057 | 0.034 ± 0.013 | -0.005 ± 0.03 | -0.02 ± 0.037 | -0.0045 ± 0.016 | 0.008 ± 0.0099 | -0.042 ± 0.024 | -0.0385 ± 0.013 | -0.064 ± 0.024 | -0.0485 ± 0.044 | -0.0425 ± 0.011 | -0.0615 ± 0.036 | -0.058 ± 0.055 | -0.0295 ± 0.022 | -0.0355 ± 0.13 | 0.0065 ± 0.00071 | -0.032 ± 0.02 | -0.143 ± 0.041 |
| 3C:CD62E/E-Selectin | -0.0025 ± 0.00071 | -0.0165 ± 0.0035 | -0.0025 ± 0.029 | -0.0155 ± 0.011 | 0.0075 ± 0.012 | -0.0185 ± 0.0035 | -0.01 ± 0.013 | -0.005 ± 0.0085 | 0.0105 ± 0.013 | 0.0015 ± 0.016 | -0.0155 ± 0.016 | 0.0005 ± 0.0078 | 0.0015 ± 0.029 | -0.0185 ± 0.0092 | -0.005 ± 0.02 | 0.0085 ± 0.0035 | 0.003 | -0.003 ± 0.0085 | -0.0075 ± 0.043 | -0.024 ± 0.042 |
| HDF3CGF:PAI-I | 0.017 ± 0.011 | 0.005 ± 0.031 | -0.041 ± 0.014 | -0.0025 ± 0.029 | 0.007 ± 0.054 | 0.018 ± 0.052 | -0.07 ± 0.1 | -0.005 ± 0.12 | -0.002 ± 0.04 | 0.0025 ± 0.0092 | 0.0135 ± 0.026 | 0.0185 ± 0.012 | 0.0055 ± 0.015 | 0.0135 ± 0.029 | 0.0295 ± 0.012 | -0.013 ± 0.023 | -0.017 ± 0.017 | -0.0205 ± 0.0092 | -0.013 ± 0.014 | -0.004 ± 0.013 |
| lMphg:M-CSF | -0.0095 ± 0.0035 | -0.032 ± 0.016 | 0.0085 ± 0.026 | -0.023 ± 0.024 | -0.0005 ± 0.011 | 0.024 ± 0.031 | -0.014 ± 0.0085 | -0.0155 ± 0.00071 | 0.003 ± 0.017 | -0.0075 ± 0.012 | -0.025 ± 0.0071 | -0.0025 ± 0.037 | -0.009 | -0.0185 ± 0.015 | 0.01 ± 0.042 | -0.011 ± 0.0071 | -0.004 ± 0.0085 | -0.01 ± 0.0028 | -0.0245 ± 0.0021 | -0.0245 ± 0.013 |
| CASM3C:HLA-DR | 0.0075 ± 0.0092 | 0.004 ± 0.0057 | 0.0095 ± 0.022 | 0.012 ± 0.011 | 0.0065 ± 0.015 | -0.0085 ± 0.018 | 0.015 ± 0.023 | -0.013 ± 0.011 | 0.0365 ± 0.0021 | -0.035 ± 0.033 | -0.0245 ± 0.0092 | 0.004 ± 0.041 | -0.022 ± 0.018 | -0.0385 ± 0.019 | 0.0135 ± 0.063 | 0.0315 ± 0.025 | 0.0075 ± 0.011 | 0.0045 ± 0.029 | 0 ± 0.025 | -0.025 ± 0.023 |
